Common to all, as to assay type: biochemical
For test [1], the target named is T1, Dyrk1a (Homo sapiens, UniProt Q13627).
T1 construct: purchased Upstate
The test is described as follows: LabChip (Caliper) kinase assay, Dyrk1a. As to conditions: for inhibition at 0.01 µM: compound at 10 nM; for inhibition at 0.01 µM / inhibition at 0.1 µM: read-out: remaining kinase activity (in %) / percentage of inhibition; for inhibition at 0.1 µM: compound at 100 nM; for pIC50: ATP at Km, read-out: CI50 (the source's name). As for the experimental part: (§1) The analysis of kinase activity described here was performed using LabChip (Caliper Life Sciences), specifically the Caliper LC3000 and the EZ Reader II instruments.
(§2) The kinase assay used measures the conversion of a fluorescent peptide (substrate) to a phosphorylated product. The reaction mixture, in a microplate well, is introduced by a capillary in a chip where the non-phosphorylated substrate and the phosphorylated product are separated by […]. The intensity of the fluorescent signal over time is related to the reaction progress. The phosphorylated product migrates quicker than the non-phosphorylated substrate and the signals of the two forms of the peptide appear as differentiated peaks. The Caliper determines the peak height and calculates the ratio of product to the peak sum (P/(P+S)). This value is used to compare wells with compounds and wells with controls and thus determine the % of inhibition for the given product.
(§3) The followings kinases were used for the enzymatic inhibition studies, between brackets the value of the Michaelis-Menten constant, Km, of the ATP (Adenosine triphosphate) for each kinase, in μM: obtained from Carna Biosciences: MAPKAPK2 (4.6), AurA (3.6), AurB (5), PKCζ (3.8), RSK1 (23.3), PRAK (5), Erk1 (33.4), PKD2 (32.1), CK1d (16.3), CHK1 (33), ABL (61.7), FYN (36), LYNa (17), CHK2 (57.8), MET (79.5), LCK (28.5), SRC (38), GSK3β (7.3), Erk2 (62.1), PKACα (1.7), AKT2 (186.1), INSR (871.8), p38a (396.5), AKT1(48), MSK1 (21.2), PKCβ2 (84.8), ROCK2 (3.3), PIM2 (4.9), AMPK (38.6), KDR (164.8), IRAK4 (196.5), SGK1 (121.8), SYK (33.5); obtained from Invitrogen: CDK2 (57.6), BTK (123), HGK (80); obtained from Upstate: MST2 (36.6), PKGα (16), PAK2 (1.9), IGF1R (320), FGFR1 (171), MARK1 (33), CAMK2δ (22.4), c-TAK1 (66), DYRK1a (18.1), CaMK4 (3.9), FLT3 (350), c-Raf (6.2), P70S6K (95).
(§4) The compounds were dissolved in 100% DMSO and were diluted at 25 times the final concentration desired for the assay. In the case of the determination of Cl50, serial dilutions were made to reach eight concentrations and give rise to the inhibition curve. 1 μL of each concentration is transferred, in duplicate to a 384-well microplate. 12 μL of enzymatic buffer is added to each well containing purified kinase (several suppliers as indicated above), 100 mM HEPES, pH 7.5, 1 mM DTT (Calbiochem), 0.002% Brij-35 (Sigma) and also in presence of 10 mM MgCl2 as cofactor, except for INSR and IRAK4 wherein 10 mM MnCl2 is used instead of MgCl2. For the kinases CAMK26 and CAMK4, 1 mM CaCl2 and 6.7 μg/mL of calmodulin are also added. For KDR kinase, 0.05% of the CHAPSO detergent is added. For the c-Raf kinase, 10 mM MnCl2 is added. For PKCβ2 0.02 μg/mL of PS/PMA is added. For PKGα se 10 μM of cGMP (cyclic guanosine monophosphate) is added. The compound and the enzyme are left for 15 minutes preincubation and, then, the following are added to each well: 12 μL of peptide buffer/ATP containing 100 mM HEPES, pH 7.5, 1.5 μM peptide marker with fluorescein (specific for the corresponding kinase), ATP (at concentration KM), and 0.002% Brij-35 to start the reaction. Generally, the reactions are incubated for 1-1.5 h at ambient temperature to obtain an adequate conversion (15-40%) of the peptide to the phosphorylated product. The reactions were ended by the addition of 45 μL of buffer containing 0 mM EDTA. The microplates were read by the LabChip 3000 using a 12-channel LabChip. The P/(P+S) values were obtained as described above and the CI50 curves were generated using XIfit.
Table 9a has the 0150 data obtained in pairs of compound-kinase selected from the compounds of formula (VII), (VIII), (IX), (XVI), (XVII) and (XVIII) after taking inhibition measurements at 100 nM and 10 nM. Those couples that provide >70% of inhibition at 10 nM were consider for measuring its IC50. […]

For test [2], the system named is CamK2a. The test is described as follows: LabChip (Caliper) kinase assay, CamK2a. As for the experimental part: as §1, §2, §3, §4
(§5) For example, the activity of the Dyrk1a kinase is inhibited in 87% by the compound of formula (III) and completely by the compound of formula (XII) when used at a concentration of 10 nM.

Test [3] addresses T2, PDK1 (Homo sapiens, UniProt O15530).
T2 sequence (O15530 1-556): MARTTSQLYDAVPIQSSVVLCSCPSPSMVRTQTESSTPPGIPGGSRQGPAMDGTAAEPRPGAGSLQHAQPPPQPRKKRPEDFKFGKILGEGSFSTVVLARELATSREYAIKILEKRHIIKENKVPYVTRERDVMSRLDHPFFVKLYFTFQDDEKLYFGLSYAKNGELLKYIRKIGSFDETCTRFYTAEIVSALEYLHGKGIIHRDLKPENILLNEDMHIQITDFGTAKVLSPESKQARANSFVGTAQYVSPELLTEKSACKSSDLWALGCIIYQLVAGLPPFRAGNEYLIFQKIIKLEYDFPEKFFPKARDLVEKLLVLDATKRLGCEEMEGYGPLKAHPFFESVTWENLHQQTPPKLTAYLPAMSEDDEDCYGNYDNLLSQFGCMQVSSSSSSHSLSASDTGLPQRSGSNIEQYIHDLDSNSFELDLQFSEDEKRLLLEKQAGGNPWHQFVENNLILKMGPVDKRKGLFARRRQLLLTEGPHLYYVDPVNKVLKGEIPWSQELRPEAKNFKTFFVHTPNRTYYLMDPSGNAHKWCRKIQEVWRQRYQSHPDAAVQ
The test is described as follows: LabChip (Caliper) kinase assay, PDK1. To be noted: read-out: remaining kinase activity (in %) / percentage of inhibition; for inhibition at 0.01 µM: compound at 10 nM; for inhibition at 0.1 µM: compound at 100 nM. The procedure:
as §1, §2, §3, §4, §5

pIC50: −log10 of the molar value.

Turning to `C[C@H]1O[C@@H](n2c3ccccc3c3c4c(c5c6ccccc6[nH]c5c32)CNC4=O)C[C@@H](O)[C@@H]1O` [formula (XV), N^13-1′-β-D-olivosyl-k252c], the inhibition at 0.01 µM stood at 14% in test [1] and 3% in test [3]. Further, the inhibition at 0.1 µM is 50% in test [1] and 81% in test [3]. Further, the entries for the “remaining kinase activity (in %) / percentage of inhibition” value in test [2] (compound at 10 nM) and in test [2] (compound at 100 nM) were −6% and 29%, respectively.

In the case of `C[C@@H]1O[C@@H](n2c3ccccc3c3c4c(c5c6ccccc6[nH]c5c32)CNC4=O)[C@H](O)[C@H](O)[C@H]1O` [formula (XII), N^13-1′-β-L-rhamnosyl-k252c], the inhibition at 0.01 µM is 101% in test [1] and -10% in test [3]. Besides, the inhibition at 0.1 µM stood at 115% in test [1] and 15% in test [3]. Besides, the “remaining kinase activity (in %) / percentage of inhibition” value is recorded as −6% in test [2] (compound at 10 nM) and 2% in test [2] (compound at 100 nM).

As to `C[C@H]1O[C@@H](n2c3ccccc3c3c4c(c5c6ccccc6[nH]c5c32)C(=O)NC4=O)C[C@@H](O)[C@@H]1O` [formula (VI), N^13-1′-β-D-olivosylarcyriaflavin], the inhibition at 0.01 µM was determined as 62% in test [1] and 21% in test [3]. Also, the inhibition at 0.1 µM in test [1] is 94%; in test [3], 76%. Besides, the “remaining kinase activity (in %) / percentage of inhibition” value in test [2] (compound at 10 nM) is 4%; in test [2] (compound at 100 nM), 46%.

As to `C[C@]12O[C@H]([C@H](O)[C@H](O)[C@H]1O)n1c3ccccc3c3c4c(c5c6ccccc6n2c5c31)C(=O)NC4=O` [formula (VII), N^12-5′(S)-N^13-1′-(R)-L-rhamnosylarcyriaflavin], the pIC50 in test [1] is 8.40.

For the molecule `C[C@]12O[C@H](C[C@@H](O)[C@H]1O)n1c3ccccc3c3c4c(c5c6ccccc6n2c5c31)C(=O)NC4=O` [formula (IX), N^12-5′(S)-N^13-1′-(R)-L-digitoxosylarcyriaflavin], in test [1], the pIC50 is less than 8.00.

As to `C[C@]12O[C@H](C[C@@H](O)[C@H]1O)n1c3ccccc3c3c4c(c5c6ccccc6n2c5c31)CNC4=O` [formula (XVIII), N^12-5′(S)-N^13-1′-(R)-L-digitoxosyl-k252c], the pIC50 in test [1] was less than 7.00.

Take `C[C@@H]1O[C@@H](n2c3ccccc3c3c4c(c5c6ccccc6[nH]c5c32)C(=O)NC4=O)C[C@H](O)[C@H]1O` [formula (IV), N^13-1′-β-L-olivosylarcyriaflavin]: the inhibition at 0.01 µM worked out at 32% in test [1] and 7% in test [3]. Also, the inhibition at 0.1 µM stood at 75% in test [1] and 71% in test [3]. In addition, the “remaining kinase activity (in %) / percentage of inhibition” value in test [2] (compound at 10 nM) was 36%; in test [2] (compound at 100 nM), 29%.

For the molecule `C[C@@H]1O[C@@H](n2c3ccccc3c3c4c(c5c6ccccc6[nH]c5c32)CNC4=O)C[C@@H](O)[C@H]1O` [formula (XIV), N^13-1′-β-L-digitoxosyl-k252c], the results for the inhibition at 0.01 µM in test [1] and in test [3] were 15% and 30%, respectively. The inhibition at 0.1 µM was determined as 73% in test [1] and 94% in test [3]. Besides, the “remaining kinase activity (in %) / percentage of inhibition” value is recorded as −7% in test [2] (compound at 10 nM) and 26% in test [2] (compound at 100 nM).

As for `C[C@@H]1O[C@@H](n2c3ccccc3c3c4c(c5c6ccccc6[nH]c5c32)C(=O)NC4=O)C[C@@H](O)[C@H]1O` [formula (V), N^13-1′-β-L-digitoxosylarcyriaflavin], the inhibition at 0.01 µM in test [1] was 49%; in test [3], 61%. In addition, the inhibition at 0.1 µM in test [1] came out at 87%; in test [3], 97%. Also, the “remaining kinase activity (in %) / percentage of inhibition” value came out at 15% in test [2] (compound at 10 nM) and 58% in test [2] (compound at 100 nM).

For the molecule `C[C@@H]1O[C@@H](n2c3ccccc3c3c4c(c5c6ccccc6[nH]c5c32)CNC4=O)C[C@H](O)[C@H]1O` [formula (XIII), N^13-1′-β-L-olivosyl-k252c], the inhibition at 0.01 µM in test [1] is 42%; in test [3], 9%. Moreover, the inhibition at 0.1 µM was found to be 89% in test [1] and 81% in test [3]. Further, the “remaining kinase activity (in %) / percentage of inhibition” value was −6% in test [2] (compound at 10 nM) and 27% in test [2] (compound at 100 nM).

As for `C[C@@H]1O[C@@H](n2c3ccccc3c3c4c(c5c6ccccc6[nH]c5c32)C(=O)NC4=O)[C@H](O)[C@H](O)[C@H]1O` [formula (III), N^13-1′-β-L-rhamnosylarcyriaflavin], the inhibition at 0.01 µM in test [1] is 87%; in test [3], -6%. Besides, the results for the inhibition at 0.1 µM in test [1] and in test [3] were 103% and 46%, respectively. Also, the “remaining kinase activity (in %) / percentage of inhibition” value is given as −5% in test [2] (compound at 10 nM) and 3% in test [2] (compound at 100 nM).

The values are drawn from US8598132B2, “Glycosylated indolocarbazoles, method for obtaining same and uses thereof” (Universidad de Oviedo, priority 2008, dated 2013).
